Measured values reported in patent US20240316047A1, “INHIBITORS OF RNA HELICASE DHX9 AND USES THEREOF” (ACCENT THERAPEUTICS, INC., priority 2022, published 2024).

Molecular target: Human recombinant DHX9 protein (Homo sapiens (Human), UniProt Q08211)
Assay: DHX9 ATPase assay (ADP-Glo)
Format: biochemical
Settings: for IC50: read-out: DHX9 Biochemical Inflection Point

Chain of Human recombinant DHX9 protein (Q08211 whole entry): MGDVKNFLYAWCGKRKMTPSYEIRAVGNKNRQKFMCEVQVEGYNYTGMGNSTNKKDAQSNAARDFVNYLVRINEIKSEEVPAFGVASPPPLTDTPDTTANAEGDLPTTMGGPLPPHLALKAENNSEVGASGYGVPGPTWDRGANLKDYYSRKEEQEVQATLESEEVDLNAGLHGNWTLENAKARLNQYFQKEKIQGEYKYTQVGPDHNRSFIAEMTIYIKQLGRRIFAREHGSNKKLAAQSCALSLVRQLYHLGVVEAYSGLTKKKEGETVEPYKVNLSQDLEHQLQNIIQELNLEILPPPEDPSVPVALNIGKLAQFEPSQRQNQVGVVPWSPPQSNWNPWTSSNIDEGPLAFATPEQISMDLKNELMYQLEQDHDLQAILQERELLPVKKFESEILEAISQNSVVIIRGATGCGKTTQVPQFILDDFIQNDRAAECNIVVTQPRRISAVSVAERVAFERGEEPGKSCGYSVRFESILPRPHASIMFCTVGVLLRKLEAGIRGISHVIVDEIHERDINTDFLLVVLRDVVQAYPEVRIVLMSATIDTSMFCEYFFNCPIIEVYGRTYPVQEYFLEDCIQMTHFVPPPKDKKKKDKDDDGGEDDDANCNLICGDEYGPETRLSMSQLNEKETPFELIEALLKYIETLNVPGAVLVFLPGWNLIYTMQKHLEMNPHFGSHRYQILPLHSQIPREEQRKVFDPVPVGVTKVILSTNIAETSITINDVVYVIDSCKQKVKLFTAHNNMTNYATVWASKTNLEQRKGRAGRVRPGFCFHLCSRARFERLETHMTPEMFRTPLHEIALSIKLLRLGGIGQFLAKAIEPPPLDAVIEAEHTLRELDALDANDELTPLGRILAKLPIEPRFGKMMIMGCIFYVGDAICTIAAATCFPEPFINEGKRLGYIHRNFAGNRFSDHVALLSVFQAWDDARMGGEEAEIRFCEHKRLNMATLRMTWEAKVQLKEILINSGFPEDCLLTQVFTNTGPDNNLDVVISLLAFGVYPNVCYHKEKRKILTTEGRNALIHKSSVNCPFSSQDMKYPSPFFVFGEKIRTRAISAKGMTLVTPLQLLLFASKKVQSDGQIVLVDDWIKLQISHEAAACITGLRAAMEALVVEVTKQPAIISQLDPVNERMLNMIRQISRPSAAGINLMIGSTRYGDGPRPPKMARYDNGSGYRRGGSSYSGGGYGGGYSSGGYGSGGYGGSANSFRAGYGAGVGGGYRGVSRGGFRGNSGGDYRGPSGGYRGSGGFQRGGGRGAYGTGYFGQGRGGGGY

SMILES	DHX9 Biochemical Max Inhibition	IC50
CS(=O)(=O)Nc1cc(Cl)cc(NC(=O)c2cc(C(=O)N3CC4(CNC4)C3)n(-c3ccccn3)c2)c1 [Example 643]	61.4	0.0408 µM
CS(=O)(=O)Nc1cc(Br)cc(NC(=O)c2cc(-c3ncccc3OCc3ccccc3)cs2)c1 [Example 32]	56.3%	0.0383 µM
Cc1sc(C(=O)Nc2cc(Cl)cc(NS(C)(=O)=O)c2)cc1-c1ncc(N2CCCC(F)(F)C2)cc1F [Example 482]	63.3	0.0665 µM
COc1ccc2cc(C(=O)Nc3cc(Cl)cc(NS(C)(=O)=O)c3)sc2c1 [Example 327]	63.3%	0.264 µM
CS(=O)(=O)Nc1cc(Cl)cc(NC(=O)c2cnn(CCc3ccccc3)c2)c1 [Example 308]	60.6%	0.375 µM
CCS(=O)(=O)Nc1cc(Cl)cc(NC(=O)c2cc(-c3cccnc3)cs2)c1 [Example 110]	53.7%	0.04 µM
Cc1cncc2cc(C(=O)Nc3cc(Cl)cc(NS(C)(=O)=O)c3)sc12 [Example 290]	59.7%	5.59 µM
CS(=O)(=O)Nc1cc(Cl)cc(NC(=O)c2cnn(-c3ccccc3Oc3cccnc3)c2)c1 [Example 264]	56.7%	0.119 µM
COCc1cc(C(=O)Nc2cc(Cl)cc(NS(C)(=O)=O)c2)cn1-c1ncccc1F [Example 682]	85.4	0.0835 µM
CS(=O)(=O)Nc1cc(Cl)cc(NC(=O)c2cccc(-c3ccncc3)c2)c1 [Example 14]	59.6%	0.353 µM
Cc1sc(C(=O)Nc2cc(Cl)cc(NS(C)(=O)=O)c2)cc1-c1c(F)cc(F)c[n+]1[O-] [Example 736]	70.3	0.0549 µM
Cc1cccnc1-c1cc(C(=O)Nc2cc(Cl)cc(NS(C)(=O)=O)c2)cn1C [Example 81]	66.7%	
Cn1cc(C(=O)Nc2cc(Cl)cc(NS(C)(=O)=O)c2)cc1-c1ccc(N2CC3(C2)CC(F)(F)C3)cn1 [Example 498]	65.4	0.038 µM
CS(=O)(=O)Nc1cc(Cl)cc(NC(=O)c2cnn(-c3ncccc3Oc3ncccn3)c2)c1 [Example 196]	68.9%	0.0786 µM
CS(=O)(=O)Nc1cc(F)cc(NC(=O)c2cc(-c3cccnc3)cs2)c1 [Example 105, N-(3-fluoro-5-(methylsulfonamido)phenyl)-4-(pyridin-3-yl)thiophene-2-carboxamide]	71.7%	0.0803 µM
Cn1nc(C(=O)Nc2cc(Cl)cc(NS(C)(=O)=O)c2)cc1-c1ccccn1 [Example 140]	63.3%	0.3 µM
CS(=O)(=O)Nc1cc(Cl)cc(NC(=O)c2cc(C(=O)N3CCN(CC(F)(F)F)CC3)n(-c3ccccn3)c2)c1 [Example 649]	67.6	0.0503 µM
CS(=O)(=O)Nc1cc(Cl)cc(NC(=O)c2cc(-c3ccc(C(F)(F)F)cn3)cs2)c1 [Example 370]	64.3%	
Cc1cccnc1-n1cc(C(=O)Nc2cc(Br)cc(NS(C)(=O)=O)c2)cn1 [Example 49]	58.6%	0.0497 µM

SMILES	DHX9 Biochemical Max Inhibition	IC50
CC(=O)N1CCC(n2cc(C(=O)Nc3cc(Cl)cc(NS(C)(=O)=O)c3)cn2)CC1 [Example 317]	63.8%	0.272 µM
Cc1cc(C(=O)Nc2cc(Cl)cc(NS(C)(=O)=O)c2)cn1-c1ncc(N2CC(F)(F)C2)cc1OC1CCC1 [Example 673]	70.2	0.104 µM
COC(=O)[C@@H]1CCCN1c1csc(C(=O)Nc2cc(Cl)cc(NS(C)(=O)=O)c2)c1 [Example 242]	69.7%	0.105 µM
CS(=O)(=O)Nc1cc(Cl)cc(NC(=O)c2cnn(-c3c(F)cccc3OCc3cccc(F)c3)c2)c1 [Example 211]	65.4%	0.0624 µM
Cn1cc(C(=O)Nc2cc(Cl)cc(NS(C)(=O)=O)c2)cc1-c1ccc(OC(C)(C)C)cn1 [Example 555]	61.9	0.0436 µM
COC1CN(c2cnc(-n3cc(C(=O)Nc4cc(Cl)cc(NS(C)(=O)=O)c4)cc3C)nc2)C1 [Example 404]	92	0.0845 µM
Cn1cc(C(=O)Nc2cc(Cl)cc(NS(C)(=O)=O)c2)cc1-c1ccc(N2CCC3(C2)CC3(F)F)cn1 (stereo not drawn) [Example 495]	61.8	0.0854 µM
CS(=O)(=O)Nc1cc(Cl)cc(NC(=O)c2nc(-c3ccccc3)c[nH]2)c1 [Example 9]	44.5%	0.39 µM
Cc1ccc2sc(C(=O)Nc3cc(Cl)cc(NS(C)(=O)=O)c3)cc2c1 [Example 331]	57.8%	0.194 µM
CS(=O)(=O)Nc1cc(Cl)cc(NC(=O)c2cc(-c3ncccc3F)n(CC(F)(F)F)c2)c1 [Example 564]	77.8	0.0701 µM
CS(=O)(=O)Nc1cc(Cl)cc(NC(=O)c2cnn(C3CC4(C3)CN(CC(F)(F)F)C4)c2)c1 [Example 312]	69.2%	0.22 µM
Cc1ccc(C#N)cc1-n1cc(C(=O)Nc2cc(Br)cc(NS(C)(=O)=O)c2)cn1 [Example 53]	52.2%	1.91 µM
Cc1sc(C(=O)Nc2cc(F)cc(NS(C)(=O)=O)c2)cc1-c1ncc(N2CC(C(F)(F)F)C2)cc1F [Example 501]	73.3	0.0709 µM
Cc1sc(C(=O)Nc2cc(Cl)cc(NS(C)(=O)=O)c2)cc1-c1ncc(N2CC3(C2)CC(F)(F)C3)cc1F [Example 511]	89.8	0.0511 µM
CSc1ccc(-n2cc(C(=O)Nc3cc(Cl)cc(NS(C)(=O)=O)c3)cn2)nc1 [Example 218]	59%	0.0765 µM
Cn1cc(C(=O)Nc2cc(Cl)cc(NS(C)(=O)=O)c2)cc1-c1ncc(F)cc1Cl [Example 544]	66.5	0.059 µM
CS(=O)(=O)Nc1cc(Cl)cc(NC(=O)c2cc(C(F)(F)F)n(-c3ccc(N4CCOCC4)cn3)c2)c1 [Example 271]	66.1%	0.0865 µM
CS(=O)(=O)Nc1cc(Br)cc(NC(=O)C2CCC2c2ccccc2)c1 (stereo not drawn) [Example 12]	58.6%	84.7 µM
COc1ccc(-c2cc(C(=O)Nc3cc(Cl)cc(NS(C)(=O)=O)c3)sc2C)nc1 [Example 352]	84.1%	

Now from value to compound:

DHX9 Biochemical Max Inhibition	IC50	SMILES
65.2	0.0316 µM	Cn1cc(C(=O)Nc2cc(Cl)cc(NS(C)(=O)=O)c2)cc1-c1ccc(N2CC(C(F)(F)F)C2)cn1 [Example 497]
76	0.025 µM	Cc1cc(C(=O)Nc2cc(Cl)cc(NS(C)(=O)=O)c2)cn1-c1ncccc1OCC1CC1 [Example 713]
75.8	0.0073 µM	COCc1cnc(-c2cc(C(=O)Nc3cc(Cl)cc(NS(C)(=O)=O)c3)cn2C)nc1 [Example 690]
72.5%	0.0089 µM	CS(=O)(=O)Nc1cc(Cl)cc(NC(=O)c2cc(-c3ccccc3)c(CO)s2)c1 [Example 120, N-(3-chloro-5-(methylsulfonamido)phenyl)-5-(hydroxymethyl)-4-phenylthiophene-2-carboxamide]
77.1%	0.0336 µM	Cc1sc(C(=O)Nc2cc(Cl)cc(NS(C)(=O)=O)c2)cc1-c1ncc(OC(F)F)cn1 [Example 345]
75.4	0.0115 µM	Cc1sc(C(=O)Nc2cc(Cl)cc(NS(C)(=O)=O)c2)cc1-c1ncc(F)cc1C#CC(C)(C)O [Example 696]
78.1%	0.0358 µM	Cc1sc(C(=O)Nc2cc(Cl)cc(NS(C)(=O)=O)c2)cc1-c1cn(Cc2ccccc2)nn1 [Example 235]
77.1	0.0066 µM	Cc1cc(C(=O)Nc2cc(Cl)cc(NS(C)(=O)=O)c2)cn1-c1ccc(N2CC(F)C2)cn1 [Example 395]
74.4	0.0068 µM	Cc1sc(C(=O)Nc2cc(Cl)cc(NS(C)(=O)=O)c2)cc1-c1ncccc1OCc1cncc(F)c1 [Example 621]
87.9%	0.0039 µM	CS(=O)(=O)Nc1cc(Cl)cc(NC(=O)c2cnn(-c3ncccc3OCc3cncc(F)c3)c2)c1 [Example 186]
68.5	0.0376 µM	CS(=O)(=O)Nc1cc(Cl)cc(NC(=O)c2cc(-n3cc(F)cn3)cs2)c1 [Example 440]
70.6%	0.0212 µM	Cc1sc(C(=O)Nc2cc(Cl)cc(NS(C)(=O)=O)c2)cc1-c1ccc(C#N)cn1 [Example 377]
72.6%	0.0165 µM	CS(=O)(=O)Nc1cc(Cl)cc(NC(=O)c2cnn(-c3ccc(N4CCn5ccnc5C4)cn3)c2)c1 [Example 192]
74.1%	0.0097 µM	Cc1cc(C(=O)Nc2cc(Cl)cc(NS(C)(=O)=O)c2)cn1-c1ccc(N2CCCC2)cn1 [Example 270]
68.1	0.0357 µM	Cc1sc(C(=O)Nc2cc(Cl)cc(NS(C)(=O)=O)c2)cc1-c1ccc(N2CC3(C2)CC(F)(F)C3)cn1 [Example 499]
72.6%	0.0055 µM	CS(=O)(=O)Nc1cc(Cl)cc(NC(=O)c2cnn(-c3ncccc3OCc3cccc(F)c3)c2)c1 [Example 65]
75.4	0.0072 µM	Cc1ncccc1-c1cc(F)cnc1-c1cc(C(=O)Nc2cc(Cl)cc(NS(C)(=O)=O)c2)sc1C [Example 608]
90.9	0.004 µM	CCS(=O)(=O)Nc1cc(Cl)cc(NC(=O)c2cc(-c3ncc(N4CC(F)C4)cn3)c(C)s2)c1 [Example 509]
73	0.0293 µM	Cc1cc(C(=O)Nc2cc(Cl)cc(NS(C)(=O)=O)c2)cn1-c1ncc(N2CC(C(F)(F)F)C2)cn1 [Example 694]
